Results on one compound are retold here after publication PMC4450660, “Biochemical and Structural Characterization of Enolase from Chloroflexus aurantiacus: Evidence for a Thermophilic Origin” (Frontiers in Bioengineering and Biotechnology, 2015).

The target in the assay is T1, EnoCa (enolase-1 from Chloroflexus aurantiacus) (Chloroflexus aurantiacus, UniProt A9WCM4).
T1 construct: gene eno; native protein purified from C. aurantiacus cells, untagged; homodimer, subunit ~46 kDa, total ~92-96 kDa
T1 sequence (A9WCM4 whole entry): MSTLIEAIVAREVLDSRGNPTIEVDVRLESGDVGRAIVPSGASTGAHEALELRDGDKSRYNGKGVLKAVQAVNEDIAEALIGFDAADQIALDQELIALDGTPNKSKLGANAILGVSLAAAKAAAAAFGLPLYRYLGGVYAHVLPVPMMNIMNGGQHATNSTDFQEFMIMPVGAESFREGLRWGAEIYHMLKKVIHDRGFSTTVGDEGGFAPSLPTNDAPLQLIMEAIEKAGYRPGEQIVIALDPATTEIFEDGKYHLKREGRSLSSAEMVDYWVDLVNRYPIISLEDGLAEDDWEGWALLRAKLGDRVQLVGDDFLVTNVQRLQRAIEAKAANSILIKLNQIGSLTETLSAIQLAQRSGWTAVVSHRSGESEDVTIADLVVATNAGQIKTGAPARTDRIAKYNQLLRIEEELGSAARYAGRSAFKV
Put plainly: X-ray crystal structure of the complex. Conditions: active site, closed conformation, second Mg2+ modelled; crystals at pH 9.0. It is filed as binding.

For the compound `C=C(OP(=O)(O)O)C(=O)O` [phosphoenolpyruvate], the “X-ray crystal structure of the complex” value is “PEP itself is bound by Glu165, Glu206, Lys338, Arg367, and Ser368”.
